Values of other authors in patent US6829374B2, “Methods for measuring iris color over time” (Glaucoma Research, Inc., priority 2001, dated 2004).

System: iris color
Settings: ocular medication, recent studies

| SMILES | change in iris color |
| --- | --- |
| CC(C)OC(=O)CCC/C=C\C[C@@H]1[C@@H](CC[C@@H](O)CCc2ccccc2)[C@H](O)C[C@@H]1O [latanoprost] | change in iris color |
| CCCCCCCC(=O)CC[C@@H]1[C@@H](C/C=C\CCCC(=O)O)[C@@H](O)C[C@H]1O [unoprostone] | change in iris color |
